The structures appear in SMILES notation.

The results in this text go back to patent US6455522B1, “Cyclic sulfonamide derivatives as metalloproteinase inhibitors” (Bristol-Myers Squibb Pharma Company, priority 1998, dated 2002).

The assay relates to cartilage degradation. Description: Acute Cartilage Degradation Rat Model. Type of assay: in vivo. The settings on record: rats, after compound administration. An excerpt: A novel in vivo model of acute cartilage degradation in rats has been characterized as a method to determine the proteoglycan content in the synovial fluid after the induction of cartilage degradation.

`COc1ccc2c(c1)c(CC(=O)O)c(C)n2C(=O)c1ccc(Cl)cc1` [Indomethacin]: the “ability to inhibit the demonstration of cartilage degradation, as measured by increased proteoglycan content in the synovial fluid” value was “inactive”.
